Square brackets hold non-standard residues; d marks the D form. Peptide text beside a SMILES is read from it. * marks the point of attachment. 1Nal = N[C@@H](Cc1cccc2ccccc12)C(=O)O; Npys = O=[N+]([O-])c1cccnc1S*; Leu(ol) = CC(C)C[C@H](N)CO; Cbz = O=C(OCc1ccccc1)*; Mpa = O=C(O)CCS
Molecular target: T1, human renin (Homo sapiens, UniProt P00797)
T1 sequence (P00797 67-406): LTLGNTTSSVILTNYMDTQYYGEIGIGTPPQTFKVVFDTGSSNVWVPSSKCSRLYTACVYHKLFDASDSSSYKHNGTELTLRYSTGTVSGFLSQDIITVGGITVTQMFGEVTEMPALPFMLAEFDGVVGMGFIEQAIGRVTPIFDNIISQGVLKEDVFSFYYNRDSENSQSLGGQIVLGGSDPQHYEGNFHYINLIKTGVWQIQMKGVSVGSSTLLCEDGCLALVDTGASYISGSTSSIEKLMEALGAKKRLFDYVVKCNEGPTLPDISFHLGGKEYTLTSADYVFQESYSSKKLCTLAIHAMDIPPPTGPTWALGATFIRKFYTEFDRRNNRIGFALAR
Assay: Inhibition of renin activity (human renin with sheep angiotensinogen, assay of angiotensin I)
Assay type: biochemical
Conditions: test compound 5 × 10^-5 mole/liter, phosphate buffer pH 7.3, 10 minutes at 37° C., mean of 3 or 4 experiments
Description: The ability of various compounds of the invention to inhibit the activity of renin was determined according to the following method.
Specifically, each test compound was dissolved in 60% v/v aqueous ethanol. Human renin activity in the presence and absence of each compound was measured using sheep angiotensinogen. The total volume of 1 ml of assay mixture contained 0.1 mole/liter phosphate buffer (pH 7.3), human renin (equivalent to 0.5 ng angiotensin I per ml per minute), sheep angiotensinogen (equivalent to 200 ng angiotensin I), the indicated concentration of the test compound, 6% ethanol and angiotensinase inhibitors (10 mmole/liter sodium ethylenediaminetetraacetate and 3.4 mmole/liter 8-hydroxyquinoline). The mixture was allowed to react for 10 minutes at 37° C., and then the reaction was stopped by placing the reaction tube in a boiling water bath for 5 minutes. The mixture was then centrifuged and the supernatant (0.05-0.1 ml) was used to assay remaining angiotensin I.
An identical experiment was carried out, as a control, except that the test compound was omitted. From the values obtained were calculated the % inhibition of renin activity achieved by each test compound. The results are shown in the following Table, in which the compounds of the invention are identified by the numbers assigned to them in the foregoing list. The values given are the mean of 3 or 4 experiments.

| SMILES | % Inhibition [%] |
| --- | --- |
| CC(C)C[C@@H](C=O)NC(=O)[C@H](Cc1c[nH]cn1)NC(=O)[C@H](Cc1ccccc1)NC(=O)CCCc1ccccc1 [Compound 1, N-(4-phenylbutyryl)-L-phenylalanyl-L-histidyl-L-leucinal] | 53 |
| CC(C)C[C@@H](C=O)NC(=O)[C@H](Cc1c[nH]cn1)NC(=O)[C@H](Cc1ccccc1)NC(=O)CCSSc1ncccc1[N+](=O)[O-] [Compound 2, N-[3-(3-nitro-2-pyridyldithio)propionyl]-L-phenylalanyl-L-histidyl-L-leucinal] ([Mpa](Npys)FHL-aldehyde) | 70 |
| CC(C)C[C@@H](C=O)NC(=O)[C@H](Cc1c[nH]cn1)NC(=O)[C@H](Cc1cccc2ccccc12)NC(=O)OCc1ccccc1 [Compound 3, N-benzyloxycarbonyl-3-(1-naphthyl)-L-alanyl-L-histidyl-L-leucinal] (Cbz-[1Nal]-His-Leu-aldehyde) | 54 |
| CC(C)C[C@@H](CO)NC(=O)[C@H](Cc1c[nH]cn1)NC(=O)[C@H](Cc1ccccc1)NC(=O)OCc1ccccc1 [Compound 10, N-benzyloxycarbonyl-L-phenylalanyl-L-histidyl-L-leucinol] (Cbz-Phe-His-[Leu(ol)]) | 58 |
| CC(C)C[C@@H](CO)NC(=O)[C@H](Cc1c[nH]cn1)NC(=O)[C@H](Cc1ccccc1)NC(=O)CCSSc1ncccc1[N+](=O)[O-] [Compound 11, N-[3-(3-nitro-2-pyridyldithio)propionyl]-L-phenylalanyl-L-histidyl-L-leucinol] ([Mpa](Npys)FH[Leu(ol)]) | 70 |
| CC(C)C[C@@H](CO)NC(=O)[C@H](Cc1c[nH]cn1)NC(=O)[C@H](Cc1cccc2ccccc12)NC(=O)OCc1ccccc1 [Compound 14, N-benzyloxycarbonyl-3-(1-naphthyl)-L-alanyl-L-histidyl-L-leucinol] (Cbz-[1Nal]-His-[Leu(ol)]) | 71 |

From patent publication US4548926A, “Hypotensive peptides and their use” (Sankyo Company Limited, priority 1983, dated 1985)
